Results from PubChem BioAssay AID248 (DTP/NCI, 2004).
Where “and” joins values, the source holds several entries; their conditions need not be identical. Equal values may be shown once. Inconclusive results and toxic doses are left out. Rule as the data show it: active = T/C of 150% or more; inactive = T/C below 125%.

Test system: L1210 leukemia ip in BDF1 mice, survival T/C
Test: NCI In Vivo Anticancer Drug Screen. Data for tumor model L1210 Leukemia (intraperitoneal) in B6D2F1 (BDF1) mice
Settings: endpoint: mean survival time, higher = longer survival
In short: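 Mice bearing the transplanted tumor received compound or vehicle. Survival of the treated group was divided by that of the vehicle-treated control group to give the ratio.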

[1] = dose: 100.0 mg/kg/injection, schedule: Q01DX009 (ip), vehicle: saline with Tween-80
[2] = dose: 200.0 mg/kg/injection, schedule: Q01DX009 (ip), vehicle: saline with Tween-80
[3] = dose: 400.0 mg/kg/injection, schedule: Q01DX009 (ip), vehicle: saline with Tween-80
[4] = dose: 100.0 mg/kg/injection, schedule: Q04DX003 (ip), vehicle: saline
[5] = dose: 100.0 mg/kg/injection, schedule: Q01DX001 (ip), vehicle: Klucel (hydroxypropylcellulose) (HPC)
[6] = dose: 200.0 mg/kg/injection, schedule: Q01DX001 (ip), vehicle: Klucel (hydroxypropylcellulose) (HPC)
[7] = dose: 400.0 mg/kg/injection, schedule: Q01DX001 (ip), vehicle: Klucel (hydroxypropylcellulose) (HPC)

Measured: T/C

Cc1cc(O)cc(C)c1Cl
inactive: [1] 91 % of control | dose: 100.0 mg/kg/injection, schedule: Q04DX003 (ip), vehicle: saline with Tween-80 92 % of control | [2] 92 % of control | dose: 200.0 mg/kg/injection, schedule: Q04DX003 (ip), vehicle: saline with Tween-80 96 % of control | [3] 89 % of control | dose: 400.0 mg/kg/injection, schedule: Q04DX003 (ip), vehicle: saline with Tween-80 96 % of control

CCOC(=O)c1c(O)cc(C)[nH]c1=O
inactive: dose: 50.0 mg/kg/injection, schedule: Q01DX001 (ip), vehicle: saline 102 % of control | dose: 100.0 mg/kg/injection, schedule: Q01DX001 (ip), vehicle: saline 96 % of control | dose: 200.0 mg/kg/injection, schedule: Q01DX001 (ip), vehicle: saline 104 % of control | dose: 400.0 mg/kg/injection, schedule: Q01DX001 (ip), vehicle: saline 104 % of control

O=C1CSSCC(=O)NCCN1
inactive: dose: 100.0 mg/kg/injection, schedule: Q04DX002 (ip), vehicle: Klucel (hydroxypropylcellulose) (HPC) 93 % of control and 96 % of control | dose: 200.0 mg/kg/injection, schedule: Q04DX002 (ip), vehicle: Klucel (hydroxypropylcellulose) (HPC) 93 % of control and 96 % of control | dose: 400.0 mg/kg/injection, schedule: Q04DX002 (ip), vehicle: Klucel (hydroxypropylcellulose) (HPC) 93 % of control and 96 % of control

CC(NC(=O)/C=C\C(=O)O)c1ccccc1 (stereo unspecified)
inactive: [4] 92 % of control | dose: 200.0 mg/kg/injection, schedule: Q04DX003 (ip), vehicle: saline 102 % of control | dose: 400.0 mg/kg/injection, schedule: Q04DX003 (ip), vehicle: saline 103 % of control

O=C1OCC/C1=C/CCCCC/C=C1\CCOC1=O
inactive: dose: 100.0 mg/kg/injection, schedule: Q01DX001 (sc), vehicle: olive oil, sesame oil, peanut oil 103 % of control | dose: 100.0 mg/kg/injection, schedule: Q04DX003 (sc), vehicle: olive oil, sesame oil, peanut oil 104 % of control | dose: 200.0 mg/kg/injection, schedule: Q01DX001 (sc), vehicle: olive oil, sesame oil, peanut oil 100 % of control | dose: 200.0 mg/kg/injection, schedule: Q04DX003 (sc), vehicle: olive oil, sesame oil, peanut oil 100 % of control | dose: 400.0 mg/kg/injection, schedule: Q01DX001 (sc), vehicle: olive oil, sesame oil, peanut oil 96 % of control | dose: 400.0 mg/kg/injection, schedule: Q04DX003 (sc), vehicle: olive oil, sesame oil, peanut oil 102 % of control

COc1ccc(/C=C2\N=C(c3cc(OC)c(OC)c(OC)c3)OC2=O)cc1Br
inactive: [1] 91 % of control | [2] 91 % of control | [3] 102 % of control

CCOC(=O)c1cnc(C)nc1N
inactive: [5] 97 % of control | [6] 97 % of control | [7] 92 % of control

Cc1ccc(S(=O)(=O)Nc2cc(Cl)c(I)c(Cl)c2)cc1
inactive: dose: 100.0 mg/kg/injection, schedule: Q01DX009 (ip), vehicle: Klucel (hydroxypropylcellulose) (HPC) 96 % of control | dose: 200.0 mg/kg/injection, schedule: Q01DX009 (ip), vehicle: Klucel (hydroxypropylcellulose) (HPC) 102 % of control | dose: 400.0 mg/kg/injection, schedule: Q01DX009 (ip), vehicle: Klucel (hydroxypropylcellulose) (HPC) 100 % of control

COC(=O)c1ccc(/C=C/c2ccc(S(=O)(=O)F)cc2)cc1
inactive: [5] 91 % of control | [6] 91 % of control | [7] 97 % of control

CC(=O)N(O)CCCCCNC(=O)CCC(=O)N(O)CCCCCNC(=O)CCC(=O)N(O)CCCCCN
inactive: dose: 83.0 mg/kg/injection, schedule: Q03HX024 (ip), vehicle: water 103 % of control | dose: 125.0 mg/kg/injection, schedule: Q03HX024 (ip), vehicle: water 102 % of control | dose: 420.0 mg/kg/injection, schedule: Q03HX024 (ip), vehicle: clinical formulation 102 % of control | dose: 420.0 mg/kg/injection, schedule: Q03HX024 (ip), vehicle: water 95 % of control and 103 % of control

CCN(CC)CCn1c2ccncc2c2cnccc21
inactive: dose: 25.0 mg/kg/injection, schedule: Q04DX003 (ip), vehicle: saline 96 % of control | dose: 50.0 mg/kg/injection, schedule: Q04DX003 (ip), vehicle: saline 101 % of control | [4] 103 % of control
